{
  "source": "PubChem BioAssay AID2060493",
  "about": "(Molecular Pharmacology Branch, DTP, NCI, 2025);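 further: spheroids exposed to agents for 7 days before readout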;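 on viability, T/C: percent viability relative to DMSO vehicle control wells taken as 100%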",
  "tested_on": "616215-338-R-J1-PDC tumor spheroids, viability",
  "experiment": "Anticancer human tumor 616215-338-R-J1-PDC patient-derived colon adenocarcinoma cell line growth inhibition [GQUAD]",
  "settings": "spheroids with HUVEC and MSC; for IC50: curve of first compound; for viability, T/C: stronger effect = lower value",
  "procedure,_shortened": "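Viability of tumor cells grown as complex spheroids with endothelial and stromal cells, exposed to drug combinations. Top concentration at or near clinical Cmax (else 10 microM), diluted in half-log increments.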",
  "key": {"[1]": {"settings": "second compound 0.0316 µM, first compound 0.0316 µM"}, "[2]": {"settings": "second compound 0.0316 µM, first compound 0.1 µM"}, "[3]": {"settings": "second compound 0.0316 µM, first compound 0.316 µM"}, "[4]": {"settings": "second compound 0.0316 µM, first compound 1 µM"}, "[5]": {"settings": "second compound 0.0316 µM, first compound 3.16 µM"}, "[6]": {"settings": "second compound 0.0316 µM, first compound 10 µM"}, "[7]": {"settings": "second compound 0.1 µM, first compound 0.0316 µM"}, "[8]": {"settings": "second compound 0.1 µM, first compound 0.1 µM"}, "[9]": {"settings": "second compound 0.1 µM, first compound 0.316 µM"}, "[10]": {"settings": "second compound 0.1 µM, first compound 1 µM"}, "[11]": {"settings": "second compound 0.1 µM, first compound 3.16 µM"}, "[12]": {"settings": "second compound 0.1 µM, first compound 10 µM"}, "[13]": {"settings": "second compound 0.316 µM, first compound 0.0316 µM"}, "[14]": {"settings": "second compound 0.316 µM, first compound 0.1 µM"}, "[15]": {"settings": "second compound 0.316 µM, first compound 0.316 µM"}, "[16]": {"settings": "second compound 0.316 µM, first compound 1 µM"}, "[17]": {"settings": "second compound 0.316 µM, first compound 3.16 µM"}, "[18]": {"settings": "second compound 0.316 µM, first compound 10 µM"}, "[19]": {"settings": "second compound 1 µM, first compound 0.0316 µM"}, "[20]": {"settings": "second compound 1 µM, first compound 0.1 µM"}, "[21]": {"settings": "second compound 1 µM, first compound 0.316 µM"}, "[22]": {"settings": "second compound 1 µM, first compound 1 µM"}, "[23]": {"settings": "second compound 1 µM, first compound 3.16 µM"}, "[24]": {"settings": "second compound 1 µM, first compound 10 µM"}, "[25]": {"settings": "second compound 3.16 µM, first compound 0.0316 µM"}, "[26]": {"settings": "second compound 3.16 µM, first compound 0.1 µM"}, "[27]": {"settings": "second compound 3.16 µM, first compound 0.316 µM"}, "[28]": {"settings": "second compound 3.16 µM, first compound 1 µM"}, "[29]": {"settings": "second compound 3.16 µM, first compound 3.16 µM"}, "[30]": {"settings": "second compound 3.16 µM, first compound 10 µM"}, "[31]": {"settings": "second compound 10 µM, first compound 0.0316 µM"}, "[32]": {"settings": "second compound 10 µM, first compound 0.1 µM"}, "[33]": {"settings": "second compound 10 µM, first compound 0.316 µM"}, "[34]": {"settings": "second compound 10 µM, first compound 1 µM"}, "[35]": {"settings": "second compound 10 µM, first compound 3.16 µM"}, "[36]": {"settings": "second compound 10 µM, first compound 10 µM"}},
  "data": [
    {"smiles": "COc1ccc([C@@H](O)c2cc(-c3ncnc4cc(N5CCOCC5)ccc34)c(F)cc2Cl)nn1", "note": "+ Cc1cnc(CNC(=O)c2c(=O)c3ccc(N4CCCN(C)CC4)nc3n3c2sc2ccccc23)cn1", "values": [
      {"measurement": "IC50", "setting": "second compound 0.0316 µM", "value": 798, "unit": "nM"},
      {"measurement": "IC50", "setting": "second compound 0.1 µM", "value": 770, "unit": "nM"},
      {"measurement": "IC50", "setting": "second compound 0.316 µM", "value": "< 31.6", "unit": "nM"},
      {"measurement": "IC50", "setting": "second compound 1 µM", "value": "< 31.6", "unit": "nM"},
      {"measurement": "IC50", "setting": "second compound 3.16 µM", "value": "< 31.6", "unit": "nM"},
      {"measurement": "IC50", "setting": "second compound 10 µM", "value": "< 31.6", "unit": "nM"},
      {"measurement": "viability, T/C", "setting": "[1]", "value": 102, "unit": "%"},
      {"measurement": "viability, T/C", "setting": "[2]", "value": 92.4, "unit": "%"},
      {"measurement": "viability, T/C", "setting": "[3]", "value": 93.9, "unit": "%"},
      {"measurement": "viability, T/C", "setting": "[4]", "value": 39.3, "unit": "%"},
      {"measurement": "viability, T/C", "setting": "[5]", "value": 30.1, "unit": "%"},
      {"measurement": "viability, T/C", "setting": "[6]", "value": 25.3, "unit": "%"},
      {"measurement": "viability, T/C", "setting": "[7]", "value": 59.2, "unit": "%"},
      {"measurement": "viability, T/C", "setting": "[8]", "value": 74.2, "unit": "%"},
      {"measurement": "viability, T/C", "setting": "[9]", "value": 61.2, "unit": "%"},
      {"measurement": "viability, T/C", "setting": "[10]", "value": 42.2, "unit": "%"},
      {"measurement": "viability, T/C", "setting": "[11]", "value": 39.9, "unit": "%"},
      {"measurement": "viability, T/C", "setting": "[12]", "value": 24.6, "unit": "%"},
      {"measurement": "viability, T/C", "setting": "[13]", "value": 43.6, "unit": "%"},
      {"measurement": "viability, T/C", "setting": "[14]", "value": 46.8, "unit": "%"},
      {"measurement": "viability, T/C", "setting": "[15]", "value": 43, "unit": "%"},
      {"measurement": "viability, T/C", "setting": "[16]", "value": 27.9, "unit": "%"},
      {"measurement": "viability, T/C", "setting": "[17]", "value": 26.4, "unit": "%"},
      {"measurement": "viability, T/C", "setting": "[18]", "value": 14.6, "unit": "%"},
      {"measurement": "viability, T/C", "setting": "[19]", "value": 25.3, "unit": "%"},
      {"measurement": "viability, T/C", "setting": "[20]", "value": 28.6, "unit": "%"},
      {"measurement": "viability, T/C", "setting": "[21]", "value": 30.5, "unit": "%"},
      {"measurement": "viability, T/C", "setting": "[22]", "value": 21.8, "unit": "%"},
      {"measurement": "viability, T/C", "setting": "[23]", "value": 22.8, "unit": "%"},
      {"measurement": "viability, T/C", "setting": "[24]", "value": 7.7, "unit": "%"},
      {"measurement": "viability, T/C", "setting": "[25]", "value": 23.1, "unit": "%"},
      {"measurement": "viability, T/C", "setting": "[26]", "value": 26.9, "unit": "%"},
      {"measurement": "viability, T/C", "setting": "[27]", "value": 30.1, "unit": "%"},
      {"measurement": "viability, T/C", "setting": "[28]", "value": 25, "unit": "%"},
      {"measurement": "viability, T/C", "setting": "[29]", "value": 15.9, "unit": "%"},
      {"measurement": "viability, T/C", "setting": "[30]", "value": 3.64, "unit": "%"},
      {"measurement": "viability, T/C", "setting": "[31]", "value": 33.8, "unit": "%"},
      {"measurement": "viability, T/C", "setting": "[32]", "value": 25.8, "unit": "%"},
      {"measurement": "viability, T/C", "setting": "[33]", "value": 32.3, "unit": "%"},
      {"measurement": "viability, T/C", "setting": "[34]", "value": 20, "unit": "%"},
      {"measurement": "viability, T/C", "setting": "[35]", "value": 15.4, "unit": "%"},
      {"measurement": "viability, T/C", "setting": "[36]", "value": 3.43, "unit": "%"}
    ]},
    {"smiles": "O=C(c1cc(Cc2n[nH]c(=O)c3ccccc23)ccc1F)N1CCN(C(=O)C2CC2)CC1", "note": "+ Cc1[nH]c2ccc(F)cc2c1-c1nc2c3cccnc3c3ncccc3c2[nH]1", "values": [
      {"measurement": "IC50", "setting": "second compound 0.0316 µM", "value": "> 10000", "unit": "nM"},
      {"measurement": "IC50", "setting": "second compound 0.1 µM", "value": "> 10000", "unit": "nM"},
      {"measurement": "IC50", "setting": "second compound 0.316 µM", "value": "> 10000", "unit": "nM"},
      {"measurement": "IC50", "setting": "second compound 1 µM", "value": "> 10000", "unit": "nM"},
      {"measurement": "IC50", "setting": "second compound 3.16 µM", "value": "> 10000", "unit": "nM"},
      {"measurement": "IC50", "setting": "second compound 10 µM", "value": "> 10000", "unit": "nM"},
      {"measurement": "viability, T/C", "setting": "[1]", "value": 99.5, "unit": "%"},
      {"measurement": "viability, T/C", "setting": "[2]", "value": 97, "unit": "%"},
      {"measurement": "viability, T/C", "setting": "[3]", "value": 107, "unit": "%"},
      {"measurement": "viability, T/C", "setting": "[4]", "value": 101, "unit": "%"},
      {"measurement": "viability, T/C", "setting": "[5]", "value": 98.6, "unit": "%"},
      {"measurement": "viability, T/C", "setting": "[6]", "value": 74.2, "unit": "%"},
      {"measurement": "viability, T/C", "setting": "[7]", "value": 102, "unit": "%"},
      {"measurement": "viability, T/C", "setting": "[8]", "value": 100, "unit": "%"},
      {"measurement": "viability, T/C", "setting": "[9]", "value": 93.8, "unit": "%"},
      {"measurement": "viability, T/C", "setting": "[10]", "value": 102, "unit": "%"},
      {"measurement": "viability, T/C", "setting": "[11]", "value": 105, "unit": "%"},
      {"measurement": "viability, T/C", "setting": "[12]", "value": 72.3, "unit": "%"},
      {"measurement": "viability, T/C", "setting": "[13]", "value": 93.9, "unit": "%"},
      {"measurement": "viability, T/C", "setting": "[14]", "value": 105, "unit": "%"},
      {"measurement": "viability, T/C", "setting": "[15]", "value": 98.9, "unit": "%"},
      {"measurement": "viability, T/C", "setting": "[16]", "value": 100, "unit": "%"},
      {"measurement": "viability, T/C", "setting": "[17]", "value": 104, "unit": "%"},
      {"measurement": "viability, T/C", "setting": "[18]", "value": 73.7, "unit": "%"},
      {"measurement": "viability, T/C", "setting": "[19]", "value": 98.8, "unit": "%"},
      {"measurement": "viability, T/C", "setting": "[20]", "value": 95.1, "unit": "%"},
      {"measurement": "viability, T/C", "setting": "[21]", "value": 104, "unit": "%"},
      {"measurement": "viability, T/C", "setting": "[22]", "value": 107, "unit": "%"},
      {"measurement": "viability, T/C", "setting": "[23]", "value": 85.9, "unit": "%"},
      {"measurement": "viability, T/C", "setting": "[24]", "value": 53.4, "unit": "%"},
      {"measurement": "viability, T/C", "setting": "[25]", "value": 99.5, "unit": "%"},
      {"measurement": "viability, T/C", "setting": "[26]", "value": 105, "unit": "%"},
      {"measurement": "viability, T/C", "setting": "[27]", "value": 95, "unit": "%"},
      {"measurement": "viability, T/C", "setting": "[28]", "value": 96.8, "unit": "%"},
      {"measurement": "viability, T/C", "setting": "[29]", "value": 110, "unit": "%"},
      {"measurement": "viability, T/C", "setting": "[30]", "value": 67.2, "unit": "%"},
      {"measurement": "viability, T/C", "setting": "[31]", "value": 96.5, "unit": "%"},
      {"measurement": "viability, T/C", "setting": "[32]", "value": 87.6, "unit": "%"},
      {"measurement": "viability, T/C", "setting": "[33]", "value": 98.2, "unit": "%"},
      {"measurement": "viability, T/C", "setting": "[34]", "value": 84.3, "unit": "%"},
      {"measurement": "viability, T/C", "setting": "[35]", "value": 91.3, "unit": "%"},
      {"measurement": "viability, T/C", "setting": "[36]", "value": 52, "unit": "%"}
    ]}
  ]
}
